Results on four compounds are retold here after PubChem BioAssay AID602322 (The Scripps Research Institute Molecular Screening Center, 2012).

The structures appear in SMILES notation. Calls of active or inactive are those of the source. The rule behind the calls is not given here. Some results are limits rather than exact numbers.

Assay [1] has as its target Diacylglycerol lipase-beta (Mus musculus) (UniProt Q91WC9). The assay is described as follows: DAGLb and ABHD6 inhibitors by competitive ABPP – biochemical, gel-based competitive ABPP, fluorescent probe, mouse, selectivity assay for DAGLb inhibitor project, dose response (AID 602322). To be noted: proteome, DAGLb.
The target in assay [2] is Monoacylglycerol lipase ABHD6 (Mus musculus) (UniProt Q8R2Y0). The description is as above. To be noted: proteome.
Monoacylglycerol lipase ABHD6 (Mus musculus), sequence (Q8R2Y0 whole entry, looked up): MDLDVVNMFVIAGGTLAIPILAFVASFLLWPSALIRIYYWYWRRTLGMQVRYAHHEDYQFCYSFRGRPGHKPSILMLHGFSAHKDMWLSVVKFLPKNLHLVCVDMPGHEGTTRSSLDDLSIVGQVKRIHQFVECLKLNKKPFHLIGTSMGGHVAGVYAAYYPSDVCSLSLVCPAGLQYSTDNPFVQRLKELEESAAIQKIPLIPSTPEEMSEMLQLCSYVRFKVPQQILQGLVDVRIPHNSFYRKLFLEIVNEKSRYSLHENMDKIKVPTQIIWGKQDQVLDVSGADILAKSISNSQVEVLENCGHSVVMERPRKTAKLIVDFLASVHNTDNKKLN

Diacylglycerol lipase-beta (Mus musculus), sequence (Q91WC9 whole entry, looked up): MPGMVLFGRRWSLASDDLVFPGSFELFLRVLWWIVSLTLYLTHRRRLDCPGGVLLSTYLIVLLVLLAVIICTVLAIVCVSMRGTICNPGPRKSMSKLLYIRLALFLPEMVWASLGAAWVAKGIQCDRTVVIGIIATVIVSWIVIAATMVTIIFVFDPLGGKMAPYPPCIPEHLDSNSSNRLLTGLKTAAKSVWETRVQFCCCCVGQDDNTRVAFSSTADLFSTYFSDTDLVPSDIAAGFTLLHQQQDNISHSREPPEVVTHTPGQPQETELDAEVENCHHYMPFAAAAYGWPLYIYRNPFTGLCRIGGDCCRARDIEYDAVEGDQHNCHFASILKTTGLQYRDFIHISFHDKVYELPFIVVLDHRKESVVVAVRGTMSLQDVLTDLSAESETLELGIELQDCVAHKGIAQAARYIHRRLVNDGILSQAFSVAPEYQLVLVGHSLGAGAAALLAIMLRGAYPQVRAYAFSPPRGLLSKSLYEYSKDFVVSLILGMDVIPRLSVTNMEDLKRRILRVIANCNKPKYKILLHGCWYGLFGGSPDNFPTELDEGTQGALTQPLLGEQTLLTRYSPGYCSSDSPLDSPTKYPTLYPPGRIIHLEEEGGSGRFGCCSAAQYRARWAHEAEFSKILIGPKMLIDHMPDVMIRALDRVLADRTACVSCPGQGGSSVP

`O=C(N1CCCCC1c1ccccc1)n1cc(-c2ccc(-c3cccc(CO)c3)cc2)nn1` (stereo unspecified): in assay [1], the IC50 was > 100 nM (inactive).
The same measure, in the same setting: the same measure for `O=C(O)c1cccc(-c2ccc(-c3cn(C(=O)N4CCCCC4Cc4ccccc4)nn3)cc2)c1` (stereo unspecified): > 100 nM (inactive).
Take `COc1ccc(-c2ccc(-c3cn(C(=O)N4CCCCC4c4ccccc4)nn3)cc2)cc1` (stereo unspecified): the figures for the IC50 in assay [1] and in assay [2] were > 3330 nM (inactive) and 38 nM, respectively.
For `O=C(N1CCCCC1c1ccccc1)n1cc(-c2ccc(-c3ccccc3)cc2)nn1` (stereo unspecified), the IC50 was > 100 nM (inactive) in assay [1] and 9.9 nM in assay [2].
